From patent US20250257336A1, “ISOLATED OR ENGINEERED POLYPEPTIDES, MICROORGANISMS AS WELL AS METHOD FOR SYNTHESIZING POLYPHENOLIC PHYTOCHEMICALS PHOSPHATE DERIVATIVE USING THE POLYPEPTIDES OR MICROORGANISMS” (National Taiwan University, priority 2021, published 2025)

Tests used:
[1] = D7P vs daidzein, G7P vs genistein; produced with Bacillus subtilis BCRC 80517; cited from earlier work
[2] = enzymatic activity of the PPS of interest and its protein mutant strains, genistein as substrate (G7P formation, HPLC); assay type: biochemical; details: Mg2+/ATP, 40° C., 10 minutes, pH 7.8, FIG. 30
Procedure: After vibration-based mixing and centrifugation (13,000 rpm, 4° C., 5 minutes), the resulting supernatant was collected, diluted, and then analyzed by HPLC. The activity unit was defined as the amount of enzyme required to yield 1 nmol of product per unit time.
Once an enzyme was prepared, its protein concentration was diluted to 0.1 mg/mL. The enzyme and the enzyme reaction liquid were mixed at a ratio of 1:1 (v/v) and were allowed to react at 40° C. for 10 minutes, at the end of which methanol was added to dilute the protein tenfold and thereby terminate the reaction. The changes in concentration of genistein (GEN) and G7P (a product of GEN phosphorylation) were analyzed. The catalytic activity of the PPS of interest in the present invention and its mutant strains were subsequently calculated and compared, as shown in FIG. 30. […] The activity test results of other protein mutant strains show no total loss of activity but a trend of decrease in activity. […] However, while the aforesaid important catalytic sites in the active domain for stabilizing the phosphate group were inferred with relatively great certainty, the amino acids in Arm1 either had relatively poor prediction results or had important catalytic sites composed of non-polar amino acids (which when substituted with Ala produce little change in property) such that the combined use of site-directed mutagenesis and enzymatic activity determination lacked accuracy.

Molecule	water solubility relative to daidzein and genistein, respectively [1]	catalytic activity (relative specific activity) compared with the PPS of interest [2]
O=c1c(-c2ccc(O)cc2)coc2cc(OP(=O)(O)O)ccc12 [D7P, daidzein 7-O-phosphate]	a hundred thousand times	–
O=c1c(-c2ccc(O)cc2)coc2cc(OP(=O)(O)O)cc(O)c12 [G7P, genistein 7-O-phosphate]	a hundred thousand times	–
K378A: site-directed mutant of the PPS of interest, Lys378 substituted with Ala (protein) MKKRGVSNMYSVLFRQAEESSQLAGAKGMNLIKLTKHGLPVPDGFIIQTNALARFMEDNQLQETSENVESGIISGTFSDELKDELTSSFYKLRESYRSVAVRSSSASEDLEGASFAGQYETYLNIKTEEEFLAKVKECWASFFSGRVSSYKKKMNNQIAEPLMGIVVQGLIDSEMSGVIFSRNPVTHDDRELLISASYGLGEAVVSGSVTPDTFIVNKSSFEIQKEIGAKEIYMESAAEGIAEKETSEDMRSRFCLTDEQVIELAEITKKTEDLYGYPVDIEFGIADHQIYLLQARPITTIDQDKKAAEEKRSFMITDTDMNDFWLNMESNIEGPVSPLFSSFIVPALEYGLKKSMQKFPIGVVVDEVKLYRGHIYSANQGGQQPPSEDCGKELFPILSEHMYDIINHTYLPFYRTLDQLAQTEHTAESALDAFQKLKAFYLTAYEEHFNIVFPQILLTNKLQAMYQDIQGESENAHFYEMLTGKMNKSLETDRCLWLFSMEVQENPNLLTIFENNKPEQLQEKLEQTDEGRHFLKNVHEFLQEYGWRSVKSHDLIEQIWVENPYFALANIQNYVRNGYHFDNEFQKTKEKREKLYNEFLENIEDPGLRTEFDRYYQWTLNSANIKDDHHFYIDAMLDAKARIFLLKIGELLAENGVIQDREDLWFLYDDEVEQALLHPVSLQEKAEKRRQIFHEYELAQAPAYLGTPTKEQLKAAEEIVGAVIEDEKNTENHIFGIAASSGIATGPVKIIRDANEFSQFAPGDVLVCKMTTPLWTSLFQDAKAIITDTGGILSHAAIIAREYGIPAVLGTRTATERLRDGDIITVDGSSGKITVVSRS	–	relatively significant decrease in activity
